# Legend:
# [1] = test system: adjuvant arthritis (left paw edema); assay: adjuvant arthritis test, prophylactic peroral administration; type: in vivo, male Lewis strain rats; conditions: prophylactic p.o.
# [2] = test system: murine Lewis lung carcinoma; assay: metastatic spread of murine Lewis lung carcinoma implanted subcutaneously; type: in vivo
# Protocol: The ability of the compounds of the invention to influence the growth and metastatic spread of murine Lewis lung carcinoma implanted subcutaneously,is evaluated.
# The procedures employed for stock tumor maintenance and transfer, as well as for drug evaluation on the primary tumor, are those found in Cancer Chemotherapy Reports, Vol. 3, No. 2, September 1972, Protocol 1.400. The measurements of metastic spread are made by counting tumor foci on the excised lung under an illuminated magnifying lens or a dissecting microscope, after employment of the Wexler india ink technique (Hilda Wexler, "Accurate Identification of Experimental Pulmonary Metastases", J. Nat. Can. Inst., Volume 36, No. 4, April 1966, pp. 641-643) to accurately identify and count lung metasteses.
# [3] = test system: autoimmune disease (systemic lupus erythematosus); assay: autoimmune disease (systemic lupus erythematosus), immunoglobulin determinations, female NZB/W mice; type: in vivo, female NZB/W F1 mice; conditions: A 100 mg/kg, levamisole 25 mg/kg, i.p. twice weekly
# Protocol: (§1) The effect of the compounds of the invention on the development and progress of autoimmune disease (systemic lupus erythematosus) in the New Zealand F1 hydrid mouse (NZB×NZW) is evaluated. NZB/W F1 mice are divided into two groups according to sex. […] IgG, IgM and antinuclear antibody determinations are made on pooled samples of serum obtained by capillary bleedings of the suborbital sinus at approximately monthly intervals. The compounds of the invention are suspended in a solution of physiological saline with 0.16% CMC. All dosing is twice weekly intraperitonially. […] Immunoglobulin values from serum samples are compared with the baseline (pretreatment) for each group.
# [4] = test system: delayed hypersensitivity reaction; assay: guinea pig delayed hypersensitivity assay (PPD); type: in vivo, Male Hartley strain guinea pigs; conditions: 50 mg/kg orally, read 24 hours after challenge, * = p < 0.05
# [5] = test system: autoimmune disease (systemic lupus erythematosus); assay: autoimmune disease (systemic lupus erythematosus), immunoglobulin determinations, male NZB/W mice; type: in vivo, male NZB/W F1 mice; conditions: A 100 mg/kg, levamisole 25 mg/kg, i.p. twice weekly
# Protocol: as §1
# [6] = test system: established adjuvant arthritis (left paw edema); assay: established adjuvant arthritis, therapeutic peroral administration; type: in vivo, male Lewis strain rats; conditions: therapeutic p.o., * = p < 0.05
# thymus gland = assay: effect on the thymus gland (thymus weight); type: in vivo, BDF1 mice
# Protocol: The effect of the compounds of the invention on the thymus gland is measured. BDF1 mice of 18-20 gms. weight are dosed at 150 mg/kg. with 6-chloro-2-phenylthiazolo[2,3-b]benzothiazolo-3(2H)-one mesoionic didehydro derivative for eight consecutive days. The mice are sacrificed on the ninth day, the thymus glands excised and weighed. The excised thymus glands averaged […]. as compared to […]. for the control group. […] The weight loss is also correlated to dose, and the results are as follows:
# Using the same technique, the following compounds of the invention were tested: 6-chloro-2-(p-chlorophenyl)thiazolo[2,3-b]benzothiazol-3(2H)-one mesoionic didehydro derivative (A), 2-phenyl-5,6,7,8-tetrahydrothiazolo[2,3-b]benzothiazol-3(2H)-one mesoionic didehydro derivative (B), 2-phenylthiazolo[2,3-b]-benzothiazol-3(2H)-one mesoionic didehydro derivative (C),6-chloro-2-trifluoroacetylthiazolo[2,3-b]benzothiazol-3(2H)-one mesoionic didehydro derivative (D), 6-chloro-3-hydroxy-2-phenylthiazolo[2,3-b]benzothiazolium bromide (E), 7-ethoxy-3-hydroxy-2-phenylthiazolo[2,3-b]benzothiazolium bromide (F), 3-hydroxy-2-phenylthiazolo[2,3-b]benzothiazolium bromide (G), and 3-hydroxy-2-phenyl-5,6,7,8-tetrahydrothiazolo[2,3-b]benzothiazolium bromide (H).
# [7] = test system: antibody-secreting plaque-forming splenocytes (IgG and IgM); assay: Cunningham modification of the Jerne assay (hemolytic plaque technique), IgM and IgG plaques per spleen; type: in vivo, CDF1 (Balb/c × DBA/2) mice; conditions: 100 mg/kg
# Protocol: In this example, the compounds of the invention are tested for their effect on antibody-secreting plaque-forming splenocytes (IgG and IgM) in the Cunningham modification of the Jerne assay. This technique is able to detect, in a quantitative manner, antibody producing cells in response to antigen stimulus in the host mouse. For study of […] immune response, sheep erythrocytes (SRBC) are used (as in the present Example), while for humoral immune response, SRBC coupled with pneumococcal polysaccharide is used.
# CDF1 (Balb/c × DBA/2) mice are immunized with 0.1 ml. of 10^8 sheep erythrocytes (SRBC) intraperitonially 4-5 days before the assay. The mice are separated into groups, with one group serving as a control and all other groups receiving compounds of the invention. The treated mice are dosed with drug on day one. […] The spleens of the sacrificed mice are excised and washed several times in RPMI 1640 with 10% fetal bovine serum. 100 λ of spleen cells are mixed with a drop of guinea pig complement, four drops of RPMI 1640 and a drop of 25% SRBC in a microtiter plate well and then pipetted into a Cunningham chamber. On day four, for IgM determinations, the chambers are incubated for 30 minutes at 37° C. Antibody, released by the small proportion of active cells, attaches to the surrounding erythrocytes which are lysed by complement leaving a small plaque up to 0.5 mm. in diameter. Since only cells releasing IgM antibody form plaques directly, a "developing" serum must be added to be able to form and view IgG plaques. Thus fifth or sixth day cultured spleen cells are further treated with rabbit antimouse IgG and then incubated for 45 minutes. Both IgM and IgG plaques are counted under a stereomicroscope.
# In Table 1 are given the IgM and IgG plaque counts per spleen for mice treated with 6-chloro-2-phenylthiazolo[2,3-b]benzothiazol-3(2H)-one mesoionic didehydro derivative and for the controls:
# The assay is repeated using the following compounds of the invention: 2-phenylthiazolo[2,3-b]benzothiazol-3(2H)-one mesoionic didehydro derivative (A), 6-chloro-2-(p-chlorophenyl)-thiazolo[2,3-b]benzothiazol-3(2H)-one mesoionic didehydro derivative (B) and 6-chloro-2-phenylthiazolo[2,3-b]benzothiazol-3(2H)-one mesoionic didehydro derivative (C).
# [8] = 150 mg/kg, eight days, in words
smiles,measurement,setting,value
"[O-]c1c(-c2ccccc2)sc2sc3ccc(Cl)cc3[n+]12 [Example 3, 6-Chloro-2-phenylthiazolo[2,3-b]benzothiazol-3(2H)-one mesoionic didehydro derivative]",Mean % Inhibition of Left Paw Edema,[1]; 10 mg/kg,32%
same,Mean % Inhibition of Left Paw Edema,"[1]; 25 mg/kg, * = p < 0.05?",41%
same,Mean % Inhibition of Left Paw Edema,"[1]; 50 mg/kg, * = p < 0.05?",63%
same,Average Number of Metastases,[2]; 25 mg/kg,10.8
same,Average Number of Metastases,[2]; 50 mg/kg,15.3
same,Average Number of Metastases,[2]; 100 mg/kg,38.4
same,Average Number of Metastases,[2]; 150 mg/kg,81.3
same,Average Number of Metastases,[2]; 300 mg/kg,99.1
same,"ANA (antinuclear antibody), Highest Dilution Positive",[3]; 47 Days,neg.
same,IgG level,[3]; 47 Days,234 mg./100 ml.
same,IgM level,[3]; 47 Days,49 mg./100 ml.
same,"ANA (antinuclear antibody), Highest Dilution Positive",[3]; 76 Days,neg.
same,IgG level,[3]; 76 Days,220 mg./100 ml.
same,IgM level,[3]; 76 Days,54 mg./100 ml.
same,"ANA (antinuclear antibody), Highest Dilution Positive",[3]; 111 Days,neg.
same,IgG level,[3]; 111 Days,496 mg./100 ml.
same,IgM level,[3]; 111 Days,148 mg./100 ml.
same,"ANA (antinuclear antibody), Highest Dilution Positive",[3]; 154 Days,neg.
same,IgG level,[3]; 154 Days,420 mg./100 ml.
same,IgM level,[3]; 154 Days,108 mg./100 ml.
same,IgG Total Change From Baseline,[3],-40 mg./100 ml.
same,IgM Total Change From Baseline,[3],+44 mg./100 ml.
same,IgG level,[3]; Pretreatment,460 mg./100 ml.
same,IgM level,[3]; Pretreatment,64 mg./100 ml.
same,Mean % Inhibition of Paw Edema,[4]; 6 hours after challenge,41%
same,Mean % Inhibition of Paw Edema,[4]; 24 hours before challenge,43%
same,"ANA (antinuclear antibody), Highest Dilution Positive",[5]; 47 Days,neg.
same,IgG level,[5]; 47 Days,234 mg./100 ml.
same,IgM level,[5]; 47 Days,48 mg./100 ml.
same,"ANA (antinuclear antibody), Highest Dilution Positive",[5]; 76 Days,neg.
same,IgG level,[5]; 76 Days,240 mg./100 ml.
same,IgM level,[5]; 76 Days,49 mg./100 ml.
same,"ANA (antinuclear antibody), Highest Dilution Positive",[5]; 111 Days,neg.
same,IgG level,[5]; 111 Days,240 mg./100 ml.
same,IgM level,[5]; 111 Days,80 mg./100 ml.
same,"ANA (antinuclear antibody), Highest Dilution Positive",[5]; 154 Days,neg.
same,IgG level,[5]; 154 Days,324 mg./100 ml.
same,IgM level,[5]; 154 Days,96 mg./100 ml.
same,IgG Total Change From Baseline,[5],-126 mg./100 ml.
same,IgM Total Change From Baseline,[5],+52.5 mg./100 ml.
same,IgG level,[5]; Pretreatment,450 mg./100 ml.
same,IgM level,[5]; Pretreatment,43.5 mg./100 ml.
same,Mean % Inhibition of Left Paw Edema,"[6]; 4th day of dosing, 12.5 mg/kg",94%
same,Mean % Inhibition of Left Paw Edema,"[6]; 4th day of dosing, 50 mg/kg",67%
same,Mean % Inhibition of Left Paw Edema,"[6]; 7th day of dosing, 12.5 mg/kg",66%
same,Mean % Inhibition of Left Paw Edema,"[6]; 7th day of dosing, 50 mg/kg",58%
same,Thymus weight,thymus gland; 12.5 mg/kg,55.3 mg
same,Thymus weight,thymus gland; 50 mg/kg,46 mg
same,Thymus weight,thymus gland; 100 mg/kg,11.8 mg
same,Thymus weight,"thymus gland; 150 mg/kg, eight consecutive days, ninth day",21.8 mg
same,Histopathological examination of the treated thymus glands,thymus gland; [8],weight loss to be due solely to the depletion of lymphocytes
same,"size of the cervical, axillary, trachial and inguinal lymph nodes",thymus gland; [8],some reduction in the size
same,Thymus weight,thymus gland; 200 mg/kg,20.5 mg
same,recovery of thymus weight and histopathological status,"thymus gland; after resting for three weeks, in words",return to normal weight and histopathological status
same,"IgG plaques, mean (total number of plaques per spleen)",[7]; Day 4,"37,087 plaques per spleen"
same,"IgM plaques, mean (total number of plaques per spleen)",[7]; Day 4,"63,993 plaques per spleen"
same,"IgG plaques, mean (total number of plaques per spleen)",[7]; Day 6,"152,745 plaques per spleen"
same,"IgM plaques, mean (total number of plaques per spleen)",[7]; Day 6,"39,679 plaques per spleen"
